# Reference: article PMC3560935 (Anesthesiology, 2011)
# Entries after “also recorded” stand apart in the source; their conditions may differ.
# Assays:
# [1] = biological target: human nociceptin receptor (Homo sapiens, UniProt P41146); assay type: binding
# Swiss-Webster mice [2] = details: mouse, in vivo
# Swiss-Webster mice [3] = details: mouse, in vivo; remark: listed apart in the source
# [4] = mouse, in vivo
# Swiss-Webster mice [5] = details: mouse, in vivo; remark: listed apart in the source
# [6] = administered intracerebroventricularly; cited from earlier work
# Chain of human nociceptin receptor (P41146 whole entry): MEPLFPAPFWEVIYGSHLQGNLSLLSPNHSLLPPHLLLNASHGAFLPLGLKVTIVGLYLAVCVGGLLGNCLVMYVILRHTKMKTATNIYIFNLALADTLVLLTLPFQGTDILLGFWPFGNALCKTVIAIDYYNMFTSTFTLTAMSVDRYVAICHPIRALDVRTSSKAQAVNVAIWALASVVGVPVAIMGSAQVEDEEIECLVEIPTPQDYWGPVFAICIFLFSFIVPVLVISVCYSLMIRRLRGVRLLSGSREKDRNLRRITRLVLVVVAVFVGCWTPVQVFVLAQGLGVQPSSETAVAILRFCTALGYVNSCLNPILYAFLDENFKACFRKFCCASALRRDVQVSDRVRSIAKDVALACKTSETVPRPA
compound,measurement,setting,value
Buprenorphine,affinity for the nociceptin receptor (in words),[1],low affinity
same,dose with the greatest analgesic response,Swiss-Webster mice [2],0.3 mg/kg
same,time to onset of antinociception,Swiss-Webster mice [2],30 min
same,time to peak antinociceptive effect,Swiss-Webster mice [2],45 min
"CO[C@]12CC[C@@]3(C[C@@H]1[C@](C)(O)C(C)(C)C)[C@H]1Cc4ccc(O[C@@H]5O[C@H](C(=O)O)[C@@H](O)[C@H](O)[C@H]5O)c5c4[C@@]3(CCN1CC1CC1)[C@H]2O5 [Buprenorphine-3-glucuronide, buprenorphine-3-glucuronide]",effect on minute ventilation (in words),Swiss-Webster mice [3],Neither buprenorphine nor B3G affected
same,effect on respiratory rate (in words),Swiss-Webster mice [3],Neither B3G nor N3G had a significant effect
same,"Concentration, Brain Homogenate",[4],1.4 ± 0.7 ng/mL
same,"Concentration, Plasma",[4],133 ± 44 ng/mL
same,Ki,"[1]; read-out: apparent Ki, Nociceptin",36 ± 0.3 µM
same,total locomotor activity compared to control / sedation (in words),Swiss-Webster mice [5],did not cause a decrease
same,antinociceptive effect (in words),Swiss-Webster mice [2],small antinociceptive effect; also recorded: mild antinociceptive activity
CN1CC[C@]23c4c5ccc(O)c4O[C@H]2[C@@H](O[C@@H]2O[C@H](C(=O)O)[C@@H](O)[C@H](O)[C@H]2O)C=C[C@H]3[C@H]1C5 [Morphine-6-glucuronide],potency relative to morphine,[6],300 times
